As a reminder, the IC50 is the point on the concentration scale where inhibition reaches its midpoint.

Activity calls are given as the source filed them. No rule for the calls is given here. Where only a bound is given, the exact number is not on record here.

The subject of the test is HeLa cells, 4N DNA content increase. Description: rise of 4N DNA cells, HeLa – IC50, dose response (AID 1117351).
Turning to `C[n+]1c2cc(N)ccc2cc2ccc(N)cc21` (tested in a mixture with another compound), the IC50 is > 10 µM (inactive). In the case of `Cc1ccc([N+](=O)[O-])[c]2c1[O][Hg]2` it was > 10 µM (inactive).

Regarding `CCCCCCCCCCCC(=O)[O][Sn]([CH2]CCC)([CH2]CCC)[O]C(=O)CCCCCCCCCCC`, the IC50 is > 10 µM (inactive). For the molecule `CCCCCCCCCCCCCC[N+](C)(C)C`, the IC50 is > 10 µM (inactive).

The values above are taken from PubChem BioAssay AID1117351.
